We go through 5 compounds from US10464901B2, “Composition including benzene diamine derivative for preventing or treating degenerative brain diseases” (UNIST(ULSAN NATIONAL INSTITUTE OF SCIENCE AND TECHNOLOGY), priority 2017, dated 2019).

SMILES strings stand for the structures.

For one series, the system named is Aβ40 and Aβ42. In words: Aβ aggregation inhibition in the presence or absence of metals, overall statements (FIG. 1). Format: biochemical. The settings on record: two kinds of Aβ (Aβ40, Aβ42). From the text: (§1) It was examined whether the benzene diamine derivatives of the present disclosure have inhibitory effects on Aβ aggregation. Aβ has two isoforms, and therefore, effects on Aβ40 and Aβ42 were examined, respectively. When metals are involved in protein folding, the probability of abnormal folding is high. In this case, the probability of Aβ aggregate formation is further increased.
(§2) In order to perform molecular analysis of Aβ aggregation-inhibitory effects of the benzene diamine derivatives of the present disclosure, gel electrophoresis and Western blotting were performed by using anti-Aβ antibody (6E10). As a control group, compound 1
(§3) In detail, each sample (10 μl) was separated on a 10-20% Tris-tricine gel (Invitrogen, Grand Island, N.Y., USA). After separation, the proteins were transferred onto a nitrocellulose membrane and blocked with bovine serum albumin (BSA, 3% w/v, Sigma-Aldrich, St Louis, Mo., USA) in Tris-buffered saline (TBS) containing 0.1% Tween-20 (TBS-T) at room temperature for 2 hours or at 4° C. overnight. The membrane was incubated in a 2% BSA (w/v in TBS-T) solution, together with anti-Aβ antibody (6E10, 1:2,000, Covance, Princeton, N.J., USA), at room temperature for 4 hours or at 4° C. overnight. The membrane was washed with TBS-T (3×, 10 min), and a secondary mouse antibody (1:5,000 in 2% BSA w/v in TBS-T; Cayman Chemical Company, Ann Arbor, Mich., USA) was added thereto, followed by incubation at room temperature for 1 hour. Thermo Scientific SuperSignal West Pico Chemiluminescent Substrate (Thermo Scientific, Rockford, Ill., USA), Biosesang ECL Plus kit (Biosesang, Gyeonggi-do, Republic of Korea), or homemade ECL kit53 were used for visualization, and ChemiDoc MP Imaging System (Bio-Rad, Hercules, Calif., USA) was used for detection.

Series [1] in a line: Antioxidant effect: free organic radical-scavenging activity (ABTS) using cell lysate. Format: biochemical. The settings on record: Table 1 summary of Example 3; symbols not defined. How it is done:
It was examined whether the benzene diamine derivatives of the present disclosure have an antioxidant effect. It is known that reactive oxygen species induces oxidative stress in neuronal cells to cause neuronal cell death and causes protein misfolding to induce formation of Aβ aggregates. Therefore, compounds having antioxidant effects may be candidates for preventing or treating dementia.
Free organic radical-scavenging activity of the compound was determined according to a protocol of Cayman Chemical Company (Ann Arbor, Mich., USA) with slight modifications. For antioxidant analysis using a cell lysate, cells were seeded in a 6-well plate, and cultured until they reached 80-90% confluence. A cell lysate was prepared according to a known method, washed with a cold phosphate buffer solution (PBS; pH 7.4, GIBCO), and then harvested. Cell pellet was produced by centrifugation (2,000 g, 4° C., 10 min). This pellet was sonicated (5 sec pulse, 20 sec interval, three times) in 2 ml of cold assay buffer S13 (5 mM potassium phosphate, pH 7.4; 0.9% NaCl; 0.1% glucose) on ice. A cell lysate was centrifuged at 4° C. for 10 minutes at 5,000 g. A supernatant was removed, and left on ice until use. To the cell lysate supernatant (10 μl), the compound, metmyoglobin, ABTS (2,2′-azino-bis-3-ethylbenzothiazoline-6-sulfonic acid), and hydrogen peroxide were sequentially added. The mixture was incubated on a shaker at room temperature for 5 minutes, and absorbance at 750 nm was measured. The compound at a final concentration of 45, 90, 135, 180, 225, or 330 μM and Trolox (6-hydroxy-2,5,7,8-tetramethyl-chroman-2-carboxylic acid, dissolved in EtOH) were used. Antioxidant activity was calculated according to the measured absorbance [% inhibition=100×(A0−A)/A0, A0 represents absorbance of the supernant of the cell lysate]. Each measurement was repeated in triplicate.

The subject of series [2] is human neuroblastoma cell line SK-N-BE(2)-M17 (M17). Nature of the series: Cytotoxicity-inhibitory effect, MTT cell viability with Aβ with or without metals. Format: cell-based. The settings on record: M17 cells, irrespective of Aβ isoforms and metals, FIG. 4. How it is done: It was examined whether the benzene diamine derivatives of the present disclosure have cytotoxicity-inhibitory effect. Aβ aggregation and reactive oxygen species may cause cytotoxicity in neuronal cells, resulting in neuronal cell death.
In detail, human neuroblastoma cell line SK-N-BE(2)-M17 (M17) (ATCC, Manassa, Va., USA) was cultured in a 1:1 minimum essential medium (MEM; GIBCO, Grand Island, N.Y., USA), Ham's F12K Kaighn's Modification Media (F12K; GIBCO) supplemented with 10% (v/v) fetal bovine serum (FBS; Atlanta Biologicals, Flowery Branch, Ga., USA), 100 U/mL penicillin (GIBCO), and […] streptomycin (GIBCO). M17 cells were seeded in a 96-well plate (150,000 in 100 μl per well), and treated with various concentrations of the compound (0-50 μM, 1% v/v DMSO) in the presence or absence of CuCl2 or ZnCl2 (a metal/ligand ratio of 1:1 or 1:2), and in the presence or absence of Aβ 40 (Aβ:metal:compound=10:10:20 μM). After incubation at 37° C. for 24 hours, 25 μl of MTT (3-(4,5-dimethylthiazol-2-yl)-2,5-diphenyltetrazolium bromide) (5 mg/mL in PBS, pH 7.4) (GIBCO) was added to each well, and each plate was incubated at 37° C. for 4 hours. […] Absorbance at 600 nm was measured by using a microplate reader.

A further series deals with Cu(II)-Aβ. In words: Aβ aggregation inhibition, gel electrophoresis and Western blotting with anti-Aβ antibody (6E10). Format: biochemical. To be noted: Table 1 summary of Example 2; symbols not defined.
Text: as §1, §2, §3

The next series deals with Metal-free Aβ. Described as above. The settings on record: Table 1 summary of Example 2; symbols not defined. Format: biochemical.
Text: as §1, §2, §3

For the next series, the system named is Zn(II)-Aβ. The series is described as above. The settings on record: Table 1 summary of Example 2; symbols not defined. Format: biochemical.
Text: as §1, §2, §3

The nature of the next series: PAMPA-BBB analysis. Format: in vitro ADME. The protocol:
[…] PAMPA-BBB analysis was performed by using a PAMPA Explorer kit (pION, Inc. Billerica, Mass., USA) according to the manufacture's protocol with slight modifications. […] The prepared solution was put in each well of a donor plate (200 μl, repeated 12 times). A polyvinylidene fluoride (PVDF, […]) filter membrane on an acceptor plate was coated with BBB-1 lipid formulation (5 μl, pION). The acceptor plate was placed on top of the donor plate to generate a “sandwich”. Brain sink buffer (BSB, 200 μl, pION) was added to each well of the acceptor plate. The sandwich-shaped plate was incubated for 4 hours at room temperature without stirring. UV-vis spectra of the solutions in the reference, acceptor, and donor plates were measured using a microplate reader. A PAMPA Explorer software [v. 3.8 (pION)] was used to calculate the −log Pe values for compounds. CNS±designations were assigned by comparison with compounds that were identified in previous reports.
A general note: PAMPA measures passive passage across an artificial lipid membrane.

In the case of `c1ccc(NCc2ccccn2)cc1` [Compound 1, reference compound], the “inhibitory effect on Aβ aggregation” value in the series on Aβ40 and Aβ42 is recorded as “did not show inhibitory effect on Aβ aggregation under any conditions”. In series [1], the “Reactive oxygen species (antioxidant effect)” value (from here on “Reactive oxygen species”) was “No effect”. For the same compound, the “effect in cytotoxicity-inhibition test (worded result)” value in series [2] is given as “did not show excellent Aβ aggregation-inhibitory effect”.
`Nc1ccc(NCc2ccc(F)cn2)cc1` [Compound 3, N^1-((5-fluoropyridin-2-yl)methyl)benzene-1,4-diamine]: the “Cu(II)-Aβ (inhibitory effect on Aβ aggregation)” value with Cu(II)-Aβ is “◯”. The “Metal-free Aβ (inhibitory effect on Aβ aggregation)” value in the series on Metal-free Aβ was “◯”. Besides, the “Zn(II)-Aβ (inhibitory effect on Aβ aggregation)” value with Zn(II)-Aβ is listed as “◯”. Also, the “inhibitory effect on Aβ aggregation” value in the series with Aβ40 and Aβ42 is “showed inhibitory effect on both two kinds of Aβ, irrespective of the kind and presence of metals”. In series [1], the “Reactive oxygen species” value is recorded as “◯”.
With `CN(C)c1ccc(NCc2nccn2C)cc1` [Compound 4, N^1,N^1-dimethyl-N^4-((1-methyl-1H-imidazol-2-yl)methyl)benzene-1,4-diamine], the “Cu(II)-Aβ (inhibitory effect on Aβ aggregation)” value in the series with Cu(II)-Aβ is “◯”. Moreover, in the series on Zn(II)-Aβ, the “Zn(II)-Aβ (inhibitory effect on Aβ aggregation)” value is recorded as “◯”. Moreover, in the series on Aβ40 and Aβ42, the “inhibitory effect on Aβ aggregation” value is recorded as “showed inhibitory effect on Aβ with metals”. In addition, the “Reactive oxygen species” value in series [1] was “◯”.
As to `CN(C)c1ccc(NCCS)cc1` [Compound 5, 2-((4-(dimethylamino)phenyl)amino)ethane-1-thiol], the “Cu(II)-Aβ (inhibitory effect on Aβ aggregation)” value with Cu(II)-Aβ is recorded as “◯”. Moreover, the “Metal-free Aβ (inhibitory effect on Aβ aggregation)” value in the series on Metal-free Aβ was “◯”. Further, in the series with Zn(II)-Aβ, the “Zn(II)-Aβ (inhibitory effect on Aβ aggregation)” value is “◯”. Also, the “inhibitory effect on Aβ aggregation” value in the series on Aβ40 and Aβ42 is “showed inhibitory effect on both two kinds of Aβ, irrespective of the kind and presence of metals”. Further, in series [1], the “Reactive oxygen species” value is reported as “◯”.
With `CC(=O)[C@H]1CC[C@H]2[C@@H]3CCC4=CC(=O)CC[C@]4(C)[C@H]3CC[C@]12C` [Progesterone, reference compound], the PAMPA-BBB permeability class entry in “PAMPA-BBB analysis” (50 μM, incubation 4 hrs, U.V) is recorded as “High”. Besides, the Papp at 4 h, 50 μM in the series “PAMPA-BBB analysis” (PAMPA, pH 7.4, 50 μM, incubation 4 hrs, U.V, read-out: Pe) amounted to 46.7 ×10⁻⁶ cm/s. The “CNS± designation” value in “PAMPA-BBB analysis” (assigned by comparison with compounds identified in previous reports) is on record as “(CNS+)”.
